# Results as given in patent US12521378B2, “Administration of R-beta-hydroxybutyrate salt blend and related compounds in humans” (priority 2016, dated 2026).
# How the values were obtained:
# [1] = blood ketone levels after R-, L- or D,L-beta-hydroxybutyrate; type: in vivo, human; conditions: 5 g or 10 mg (so in the source)
# Method: Individuals were 5 g or 10 mg of R-beta-hydroxybutyrate, L-beta-hydroxybutyrate, or D,L-beta-hydroxybutyrate and blood ketone levels were measured.
# [2] = mental acuity testing (tracking, saccades, processing speed, response accuracy); type: in vivo, human
# Method: Processing speed testing was performed (e.g, processing speed is considered a true measure of cognitive performance). […] Response accuracy was also tested.
# [3] = Bench Press strength and power testing at 50% of 1-RM; type: in vivo, human; conditions: 5 g; for increase in minimum power: averages of power measurements
# Method: FIGS. 19A-19B illustrate the results of the testing. […] Thus, R-beta-hydroxybutyrate experienced a greater than expected impact when compared with D,L-beta-hydroxybutyrate. The individuals were also tested for power. FIG. 19C illustrates the results of the testing (e.g., averages of power measurements). As illustrated, R-beta-hydroxybutyrate administration increased minimum power by 26%, while the DL-beta-hydroxybutyrate administration raised power by 2%.
# [4] = 2 km time test on wingate cycle ergometer; type: in vivo, human; conditions: 10 g, 30 minutes before 2 km time test
# Method: Five healthy individual were given a 2 km time test (e.g., 4 cycles of low to severely intense exercise on a […] ergometer) 30 minutes after administration of a placebo, 10 g of R-beta-hydroxybutyrate, and 10 g of […]. FIG. 12 illustrates the average blood ketone levels and FIG. 13 illustrates the percentage improvement over the administration of the placebo. […] FIG. 14 illustrates the perceived exertion experienced by the individuals. […] Thus, the R-beta-hydroxybutyrate has an unexpectedly impact on ketone levels and performance.
# [5] = Respiratory exchange ratio (RER); type: in vivo, human; conditions: 10 subjects
# Method: 10 subjects were administered approximately 5 g or 10 g of D,L-beta-hydroxybutyrate or R-beta-hydroxybutyrate, and Respiratory exchange ratio was examined (RER, a ratio of carbon dioxide/oxygen).
# [6] = Xray absorptiometry, fat mass and lean mass; type: in vivo, human; conditions: 5 g twice daily for 3 months; one individual
# Method: Xray absorptiometry was performed to determine the impact of the administration of R-beta-hydroxybutyrate on fat loss. […] As illustrated, the individual experienced a greater than approximately 10% decrease in fat mass. […] Thus, the R-beta-hydroxybutyrate may cause weight loss through fat loss rather than lean mass (e.g., muscle mass).
# Lipoprotien lipase (LPL) = assay: average Lipoprotien lipase (LPL) in rats; type: in vivo; conditions: standard diet plus salt equivalent to 5 g or 10 g; 10 rats per grouping
# Description: FIG. 11 illustrates the average Lipoprotien lipase (LPL) in the rats. Since LPL is needed to transport fat into adipose tissue, lowering LPL levels would inhibit fat storage and encourage usage of fat storages.
# [7] = lifespan of rats on low-fat standard American diet; type: in vivo, Fischer 344 rats; conditions: supplemented versus standard diet at 20 months
# Description: Sixteen rats (Fischer 344 rats) were studied for the effect of R-beta-hydroxybutyrate on lifespan. A first grouping of eight rats were fed an equivalent to a low-fat standard American diet and a second grouping of eight rats were fed the same equivalent to a low-fat standard American diet and supplemented with R-beta-hydroxybutyrate salt (e.g., sodium R-beta-hydroxybutyrate). The second grouping of rats were supplemented with the R-beta-hydroxybutyrate salt at middle age. FIG. 7 illustrates the average lifespans of the groupings of rats. […] Since the rat study was performed as an approximation of impact in humans, the addition of R-beta-hydroxybutyrate to a standard American low-fat diet may increase lifespan.
# C-reactive protein = C-reactive protein levels after administration; type: in vivo, human; conditions: one individual with high C-reactive protein; 62.5 before administration
# Method: (§1) An individual with high C-reactive protein, which is associated with inflammation, was administered R-beta-hydroxybutyrate. […] In addition, fasting glucose was decreased (e.g., 104 to 95).
# [8] = motor function testing by eye movements in an individual with Parkinson's disease; type: in vivo, human; conditions: approximately 10 g; approximately 30 minutes after administration; one Parkinson's patient, pre vs post
# Description: The testing included a right-eye visual and motor performance apparatus to track motor function through eye movements. FIG. 8 illustrates chart illustrating the results of the motor skill testing following an example implementation of administration of R-beta-hydroxybutyrate. FIG. 8 illustrates average results for a similar non-Parkinson's population, the patient pre-administration of R-beta-hydroxybutyrate, and the patient post-administration of R-beta-hydroxybutyrate.
# [9] = perceived hunger, satiety and perceived energy; type: in vivo, human
# Method: FIGS. 18A-18C illustrate the results of the testing. FIG. 18A illustrates perceived hunger, FIG. 18B illustrates perceived satiety, and FIG. 18C illustrates perceived energy. […] R-beta-hydroxybutyrate sustained elevated perceived energy levels from 0 minutes at 60, 90, and 120 minutes post consumption, as opposed to D,L-beta-hydroxybutyrate.
# [10] = fasting glucose after administration; type: in vivo, human; conditions: same individual; 104 before administration
# Method: as §1
# superoxide dismutase 2 = superoxide dismutase 2 levels in the brain; type: in vivo; conditions: e.g. 10 g; standard or ketogenic diet
# Method: Individuals were given a standard diet or ketogenic diet. Some individuals were administered R-beta-hydroxybutyrate (e.g., 10 g).
# [11] = glucose challenge test, blood ketone levels; type: in vivo, human; conditions: 250 mg DHBB alone or with 5 mg sodium beta-hydroxybutyrate; one subject; 120 minutes
# Method: A subject was subject to a glucose challenge test (75 g glucose) after administration of 250 mg dihydroberberine (DHBB) and a glucose challenge test after administration of 250 mg dihydroberberine (DHBB) along with 5 mg of beta-hydroxybutyrate (e.g., 5 mg sodium beta-hydroxybutyrate).
# [12] = glucose challenge test (75 g glucose), blood glucose levels; type: in vivo, human
# Method: Five subjects were subject to three separate glucose challenge tests (75 g glucose) after administration of 500 mg berberine (BB), 250 mg of dihydroberberine (DHBB) or 500 dihydroberberine. Blood was drawn prior to administration and after 30, 60, 90, 120, and 180 minutes. FIG. 1 illustrates the results of the administration protocol. FIG. 1 illustrates the average blood glucose level of the 5 subjects at each of the times.
# As in Example 1, five subjects were subject to three separate glucose challenge tests (75 g glucose) after administration of 500 mg berberine (BB), 250 mg of dihydroberberine (DHBB) or 500 dihydroberberine. FIG. 2 illustrates a ranking which compositions caused the lowest blood glucose levels during a oral glucose challenge. […] For example, in some individuals (e.g., individuals with moderate glucose tolerance) may achieve better blood glucose control when administered a lower dosage of DHBB.
# Five subjects were subject to three separate glucose challenge tests (75 g glucose) approximately 25 minutes after administration of 500 mg berberine (BB), 250 mg of dihydroberberine (DHBB) or 500 dihydroberberine. Blood was drawn prior to administration and after 30, 60, 90, 120, and 180 minutes and tested for glucose levels. FIG. 4 illustrates the results of the administration protocol.
# [13] = blood ketone level over time after administration of sodium beta-hydroxybutyrate; type: in vivo, human; conditions: 5 mg of sodium R-beta-hydroxybutyrate (so in the source); average of 4 subjects; 30, 60, 90, 120 and 180 minutes
# [14] = before vs after, 5 resistance trained males, 50% of 1-RM
compound,measurement,setting,value
"CC(O)CC(=O)O (racemic) [D,L-beta-hydroxybutyrate, reference compound]",blood ketone levels,[1],does not lower blood ketone levels to the same extent as R-beta-hydroxybutyrate
same,increase of response accuracy,[2]; DL-beta-hydroxybutyrate,12.7%
same,"Horizontal Saccades, performance improvement",[2]; e.g. 5 g,3.2%
same,improvement of processing speed,[2]; e.g. 5 g,approximately 18%
same,"Circular Tracking, improvement in tracking accuracy",[2]; e.g. 10 g,no improvement
same,"Vertical Tracking, improvement of performance",[2]; e.g. 10 g,4.6%
same,increase in minimum power,[3],2%
same,decrease in Bench Press test result,[3]; [14],2%
same,perceived exertion,[4],did not feel an impact in perceived exertion
same,increase of RER,"[5]; D,L-beta-hydroxybutyrate, more than 5 g",17%
C[C@H](O)CC(=O)O [L-beta-hydroxybutyrate],blood ketone levels,[1],does not decrease blood ketones
"C[C@@H](O)CC(=O)O [R-beta-hydroxybutyrate, (R)-3-Hydroxybutyric acid]","Horizontal Saccades, improvement relative to D,L-beta-hydroxybutyrate",[2]; e.g. 5 g,4 times
same,"Horizontal Saccades, performance improvement",[2]; e.g. 5 g,13.8%
same,improvement of processing speed,[2]; e.g. 5 g,27.7%
same,increase of response accuracy,[2]; e.g. 5 g,37 percentage points
same,"Circular Tracking, improvement in tracking accuracy",[2]; e.g. 10 g,approximately 3%
same,"Vertical Tracking, improvement of performance",[2]; e.g. 10 g,13.8%
same,"Vertical Tracking, improvement relative to D,L-beta-hydroxybutyrate",[2]; e.g. 10 g,approximately 3 times
same,decrease in fat mass,[6],> 10%
same,lean mass,[6],maintaining lean mass
same,increase in minimum power,[3],26%
same,increase in Bench Press test result,[3]; [14],11%
same,LPL levels,Lipoprotien lipase (LPL),decreases LPL levels
same,perceived exertion,[4],perceived exertion improvement
same,"blood ketone levels compared with D,L-beta-hydroxybutyrate",[4]; five healthy individuals,increased more than double
same,"performance (improvement in time) compared with D,L-beta-hydroxybutyrate",[4]; improvement over placebo,increased by more than double
same,rats with increased lifespan,[7],≥ 38.5%
same,C-reactive protein levels after administration,C-reactive protein,4.4
same,motor function,[8],increased motor function
same,"improvement of perceived energy relative to D,L-beta-hydroxybutyrate","[9]; 0 to 30 minutes post consumption, 5 g-10 g","double that of D,L-beta-hydroxybutyrate"
same,raise of perceived energy,[9]; 5 g-10 g,18%
same,improvement of satiety levels relative to DL-beta-hydroxybutyrate,"[9]; 30 minutes post consumption, relative to baseline, 5 g-10 g",2.3 ×
same,raise of perceived energy relative to peak increase with DL-beta-hydroxybutyrate,[9]; in vivo,more than 2 times
same,time for which raised perceived energy was sustained,[9]; post ingestion,2 h
same,"reduction of RER relative to D,L-beta-hydroxybutyrate",[5]; 10 g,approximately 3 ×
same,fasting glucose after administration,[10],95
same,superoxide dismutase 2 levels (SOD) in the brain,superoxide dismutase 2,numerically increase superoxide dismutase 2 levels
COc1ccc2c(c1OC)CN1CCc3cc4c(cc3C1=C2)OCO4 [dihydroberberine],blood ketone levels after glucose challenge,[11],unexpectedly increased even 120 minutes after the glucose challenge
same,control of blood glucose levels during oral glucose challenge (ranking),"[12]; 250 mg DHBB vs 500 mg DHBB, 5 subjects",control blood glucose levels better than even 500 mg of DHBB
same,blood glucose during oral glucose challenge versus berberine,"[12]; 250 mg or 500 dihydroberberine vs 500 mg berberine, 5 subjects",lower blood glucose than administration of berberine in most individuals
same,fluctuations in blood glucose level,"[12]; 75 g glucose challenge, 250 mg or 500 dihydroberberine vs 500 mg berberine, average of 5 subjects, 30-180 minutes",less fluctuations in blood glucose level than berberine
same,blood glucose levels relative to fasting blood glucose,"[12]; 75 g glucose challenge, dihydroberberine vs 500 mg berberine, 5 subjects",keep blood glucose levels closer to fasting blood glucose than berberine
same,moderation of blood glucose levels,"[12]; individuals with moderate baseline glucose levels, glucose challenge about 25 minutes after administration, vs 500 mg berberine",moderates blood glucose levels better than even double the quantity of berberine
C[C@@H](O)CC(=O)[O-].[Na+] [sodium R-beta-hydroxybutyrate],"blood ketone level compared with 10 g of D,L-beta-hydroxybutyrate",[13],approximately the same blood ketone level
